≈ marks a conversion by molar mass, not a printed value. Where “and” joins values, the source holds several entries; their conditions need not be identical. Equal entries are not always repeated. Where only a bound is given, the exact number is not on record here.

Among the test systems are Bacillus subtilis; Enterococcus faecalis; Enterococcus faecium; Klebsiella pneumoniae; Streptococcus pneumoniae; Escherichia coli C600; Staphylococcus warneri; Pseudomonas aeruginosa.
Assay in all cases: ≥ marks a high value that may be exact or a test limit, other limits are often not marked, values filed in µg/mL are converted to µM
Assay [1] relates to Bacillus subtilis ATCC 6633.
The test system of assay [2] is Enterococcus faecium CMCC 1.2136.
Assay [3] concerns Escherichia coli CVCC 1515.
The test system of assay [4] is Escherichia coli CVCC 195.
In assay [5] the test system is Escherichia coli O157:H7 CICC 21530.
The subject of assay [6] is Pseudomonas aeruginosa CICC 10419.
The subject of assay [7] is Pseudomonas aeruginosa CICC 21630.
Assay [8] has as its system Salmonella enterica subsp. enterica serovar Choleraesuis CVCC 503.
For assay [9], the system named is Salmonella enterica subsp. enterica serovar Enteritidis CVCC 3377.
Assay [10] concerns Salmonella enterica subsp. enterica serovar Pullorum CVCC 1789.
Assay [11] concerns Salmonella enterica subsp. enterica serovar Pullorum CVCC 1802.
Assay [12] deals with Salmonella enterica subsp. enterica serovar Typhimurium ATCC 14028.
In assay [13] the test system is Staphylococcus aureus ATCC 25923.
In assay [14] the test system is Staphylococcus aureus ATCC 43300.
Assay [15] relates to Streptococcus suis CVCC 606.
For assay [16], the system named is Escherichia coli ATCC 25922.
Assay [17] deals with Pseudomonas aeruginosa PAO1.
The subject of assay [18] is Staphylococcus epidermidis BCM0060.
For assay [19], the system named is Bacillus subtilis VKM B-501.
Assay [20] deals with Staphylococcus aureus 209P.
Assay [21] deals with Acinetobacter baumannii ATCC 19606.
The test system of assay [22] is Klebsiella pneumoniae ATCC 13883.
For assay [23], the system named is Pseudomonas aeruginosa ATCC 27853.
Assay [24] deals with Staphylococcus aureus ATCC 29213.
Assay [25] relates to Staphylococcus haemolyticus.
Assay [26] deals with Staphylococcus lugdunensis.
In assay [27] the test system is Escherichia coli BL21(DE3).
In assay [28] the test system is Staphylococcus epidermidis ATCC 12228.
In assay [29] the test system is Pseudomonas aeruginosa ATCC 9027.
In assay [30] the test system is Staphylococcus aureus ATCC 19636.
In assay [31] the test system is Candida albicans ATCC 14053.
Assay [32] deals with Escherichia coli ATCC 11775.
Assay [33] concerns Micrococcus luteus ATCC 49732.
The subject of assay [34] is Staphylococcus aureus ATCC 12600.

For orientation: MIC means the lowest concentration found to suppress growth. Consider `CC(C)[C@H](NC(=O)CNC(=O)[C@H](CC(N)=O)NC(=O)[C@H](CCCN=C(N)N)NC(=O)[C@H](Cc1ccc(O)cc1)NC(=O)[C@@H](NC(=O)[C@H](C)NC(=O)[C@@H](NC(=O)[C@H](CC(N)=O)NC(=O)[C@H](Cc1c[nH]c2ccccc12)NC(=O)[C@H](C)NC(=O)[C@H](Cc1ccccc1)NC(=O)CN)C(C)C)C(C)C)C(=O)N[C@@H](CCCN=C(N)N)C(=O)N[C@H](C(=O)N[C@@H](C)C(=O)N[C@@H](Cc1cnc[nH]1)C(=O)N[C@@H](CCCN=C(N)N)C(=O)N[C@@H](CCCN=C(N)N)C(=O)N[C@@H](C)C(=O)N[C@@H](CC(N)=O)C(=O)O)C(C)C` [GFAWNVAVYRNGVRVAHRRAN], for which the MIC in assay [1] was 1.66 µM (≈ 4 µg/mL); in [2] it was 6.63 µM (≈ 16 µg/mL); in assay [3] it was 6.63 µM (≈ 16 µg/mL); in [4], 13.3 µM (≈ 32 µg/mL); in assay [5], 6.63 µM (≈ 16 µg/mL); in assay [6], no less than 53 µM. Moreover, the MIC in [7] was no less than 53 µM; in assay [8], 26.5 µM (≈ 64 µg/mL); in assay [9], 0.414 µM (≈ 1 µg/mL); in assay [10] it was no less than 53 µM; in assay [11], 13.3 µM (≈ 32 µg/mL); in assay [12], greater than 26.5 µM. In addition, the MIC in assay [13] was 0.829 µM (≈ 2 µg/mL); in [14], greater than 26.5 µM; in [15] it was no less than 53 µM.

With `CC[C@H](C)[C@H](NC(=O)[C@H](CCCCN)NC(=O)[C@H](Cc1c[nH]c2ccccc12)NC(=O)[C@H](CCCN=C(N)N)NC(=O)[C@H](CCCN=C(N)N)NC(=O)CNC(=O)[C@H](Cc1cnc[nH]1)NC(=O)CNC(=O)CN)C(=O)N[C@H](C(=O)N[C@H](C(=O)N[C@H](C(=O)N[C@@H](CCCN=C(N)N)C(=O)N[C@@H](Cc1c[nH]c2ccccc12)C(=O)N[C@@H](CCCN=C(N)N)C(=O)N[C@@H](CCCN=C(N)N)C(N)=O)[C@@H](C)CC)C(C)C)C(C)C` [GGHGRRWKIVVIRWRR], the MIC against Bacillus subtilis was 1.33 µM (≈ 2.7 µg/mL); in the assay on Enterococcus faecalis, 1 µM (≈ 2.03 µg/mL); in the assay with Enterococcus faecium it was 0.3 µM (≈ 0.609 µg/mL); in assay [16], 1 µM and 3 µM; in the assay on Klebsiella pneumoniae it was 4.7 µM (≈ 9.55 µg/mL); in assay [17], 1.7 µM (≈ 3.45 µg/mL). Besides, the MIC in [14] was 1.3 µM and 2.7 µM; in assay [18] it was 2.3 µM (≈ 4.67 µg/mL); against Streptococcus pneumoniae, 9.3 µM (≈ 18.9 µg/mL).

For the compound `CC[C@H](C)[C@H](NC(=O)[C@H](C)NC(=O)[C@H](CCCCN)NC(=O)[C@H](CCCN=C(N)N)NC(=O)CNC(=O)[C@H](CCCCN)NC(=O)[C@H](CCCCN)NC(=O)[C@H](CCCCN)NC(=O)[C@@H](NC(=O)[C@H](CC(C)C)NC(=O)[C@H](CCCCN)NC(=O)CNC(=O)[C@H](Cc1ccccc1)NC(=O)[C@H](CC(C)C)NC(=O)CN)[C@@H](C)CC)C(=O)N[C@@H](CO)C(=O)N[C@@H](Cc1ccc(O)cc1)C(=O)N[C@@H](C)C(=O)N[C@H](C(=O)N[C@@H](CCCCN)C(=O)N[C@@H](CCCCN)C(=O)N[C@@H](C)C(=O)N[C@@H](CCCN=C(N)N)C(=O)NCC(=O)N[C@@H](CCCCN)C(=O)N[C@@H](Cc1cnc[nH]1)C(=O)O)C(C)C` [GLFGKLIKKKGRKAISYAVKKARGKH], the MIC amounted to 0.7 µM (≈ 2.02 µg/mL) in assay [19], 6 µM (≈ 17.3 µg/mL) against Escherichia coli C600 and 18 µM (≈ 51.9 µg/mL) in assay [20].

Turning to `CC(C)C[C@H](NC(=O)CN)C(=O)N[C@@H](CC(C)C)C(=O)N[C@@H](CCCN=C(N)N)C(=O)N[C@@H](C)C(=O)N[C@@H](CO)C(=O)N[C@@H](CO)C(=O)N[C@@H](CCCCN)C(=O)N[C@@H](Cc1c[nH]c2ccccc12)C(=O)NCC(=O)N[C@@H](CCCN=C(N)N)C(=O)N[C@@H](CCCCN)C(=O)N[C@@H](Cc1ccc(O)cc1)C(=O)N[C@@H](Cc1ccc(O)cc1)C(=O)N[C@H](C(=O)N[C@@H](CC(=O)O)C(=O)N[C@@H](CC(C)C)C(=O)N[C@@H](C)C(=O)NCC(=O)N[C@@H](CS)C(=O)N[C@@H](C)C(=O)N[C@@H](CCCCN)C(=O)N[C@@H](C)C(=O)O)C(C)C` [GLLRASSKWGRKYYVDLAGCAKA], the MIC was determined as 8 µM (≈ 20.1 µg/mL) in [21]; 11.3 µM (≈ 28.4 µg/mL) in assay [16]; 8 µM (≈ 20.1 µg/mL) in assay [22]; 8 µM (≈ 20.1 µg/mL) in [23]; 1 µM (≈ 2.51 µg/mL) in [24]; 24.9 µM (≈ 62.5 µg/mL) in [25]. Also, the MIC in [26] was 24.9 µM (≈ 62.5 µg/mL); with Staphylococcus warneri, 12.5 µM (≈ 31.3 µg/mL).

`CC[C@H](C)[C@H](NC(=O)[C@@H]1CCCN1C(=O)[C@H](CC(C)C)NC(=O)[C@H](CC(C)C)NC(=O)[C@H](CCCCN)NC(=O)[C@@H](N)CCCCN)C(=O)N[C@H](C(=O)N[C@@H](CCCCN)C(=O)N[C@@H](CC(N)=O)C(=O)N[C@@H](CC(C)C)C(=O)N[C@@H](CC(C)C)C(=O)N[C@@H](CCCCN)C(=O)N[C@@H](CO)C(=O)N[C@@H](CC(C)C)C(=O)N[C@@H](CC(C)C)C(=O)O)C(C)C` [KKLLPIVKNLLKSLL]: the MIC is 0.2 µM (≈ 0.344 µg/mL) in assay [27], 2.5 µM (≈ 4.3 µg/mL) against Pseudomonas aeruginosa and 0.025 µM (≈ 0.043 µg/mL) in assay [28].

For `CC(C)C[C@H](NC(=O)[C@H](Cc1c[nH]c2ccccc12)NC(=O)[C@H](CCCCN)NC(=O)[C@H](CC(C)C)NC(=O)[C@H](Cc1c[nH]c2ccccc12)NC(=O)[C@H](C)NC(=O)[C@H](CCCN=C(N)N)NC(=O)[C@H](Cc1c[nH]c2ccccc12)NC(=O)[C@H](CCCCN)NC(=O)[C@@H](N)CCCCN)C(=O)N[C@@H](C)C(=O)N[C@@H](CCCCN)C(=O)N[C@@H](CCCCN)C(=O)O` [KKWRAWLKWLAKK], the MIC in assay [16] stood at 1.78 µM (≈ 3.1 µg/mL); in assay [23] it was 0.918 µM (≈ 1.6 µg/mL); in assay [29], 1.78 µM (≈ 3.1 µg/mL); in assay [30] it was 0.918 µM (≈ 1.6 µg/mL); in assay [13] it was 7.17 µM (≈ 12.5 µg/mL); in [24] it was 7.17 µM (≈ 12.5 µg/mL).

Consider `CC(C)[C@H](NC(=O)[C@H](C)NC(=O)[C@@H](NC(=O)CNC(=O)[C@@H]1CCCN1)[C@@H](C)O)C(=O)N[C@@H](Cc1ccccc1)C(=O)N[C@@H](C)C(=O)O` [PGTAVFA], for which the minimum inhibitory concentration (MIC) in assay [31], in [32], in assay [33] and in assay [34] was no less than 1010 µM in each case.

Source of the values: DBAASP.
